Measurements published in patent US5767261A, “Lepidopteran GABA gated chloride channel and nucleic acids encoding subunits thereof” (priority 1995, dated 1998).

What was measured:
[1] = target: T1, Heliothis virescens cyclodiene resistant GABA gated chloride channel (Heliothis virescens, UniProt O18468); test: Whole cell voltage clamp recordings of Sf9 cells infected with recombinant baculovirus Elise13; type: cell-based; settings: 1×10^-3 M GABA, thirty hours post infection, FIG. 3
T1 sequence (O18468 30-496): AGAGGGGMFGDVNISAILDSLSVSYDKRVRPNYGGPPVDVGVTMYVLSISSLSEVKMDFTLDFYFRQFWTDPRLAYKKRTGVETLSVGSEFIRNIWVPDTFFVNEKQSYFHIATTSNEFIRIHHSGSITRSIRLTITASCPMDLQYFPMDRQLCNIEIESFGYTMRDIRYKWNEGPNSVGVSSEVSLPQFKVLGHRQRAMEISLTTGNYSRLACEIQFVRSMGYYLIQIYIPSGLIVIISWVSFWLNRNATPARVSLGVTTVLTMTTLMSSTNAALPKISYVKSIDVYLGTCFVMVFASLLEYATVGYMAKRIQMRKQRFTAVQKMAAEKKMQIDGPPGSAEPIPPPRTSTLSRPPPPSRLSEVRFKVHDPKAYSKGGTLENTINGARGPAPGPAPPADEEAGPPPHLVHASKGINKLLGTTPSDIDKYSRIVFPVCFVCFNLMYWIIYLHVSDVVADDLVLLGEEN
From the text: A BamHI/XhoI DNA fragment from plasmid pIVY12 described in Example 1 containing the complete coding sequence of the Heliothis virescens cyclodiene resistant GABA gated chloride channel subunit was cloned into the baculovirus transfer vector pBacPac8 (Clontech). The resulting vector, pIVY13, contains cDNA encoding the Heliothis virescens cyclodiene resistant GABA gated chloride channel subunit under the control of the polyhedrin promoter. The 8.0 kb vector, PIVY13, consists of the Heliothis sequence of pIVY12 cloned into the BamHI/XhoI site of pBacPac8 and is depicted in FIG. 2. Spodoptera frugiperda 9 (Sf9) cells were cotransfected by pIVY13 and wild type Autographa californica nuclear polyhedrosis virus (AcMNPV) using the lipofectin procedure. In transfer vector pIVY13, flanking AcMNPV sequences allowed recombination with the viral DNA, thus resulting in the transfer of the expression cassette of the Heliothis cDNA and the polyhedrin promoter to the polyhedrin locus of the viral DNA. The recombinant virus thus generated was designated Elise13. Viral stocks of Elise13 were generated by standard procedures described by O'Reilly et al. (1992) Baculovirus Expression Vectors, A Laboratory Manual, W. H. Freeman and Company. Sf9 cells were infected with Elise13 at a multiplicity of infection of 5 plaque forming units (PFU) per cell by standard procedures. […]

[2] = target: T2, Heliothis virescens cyclodiene resistant chloride channel (Heliothis virescens, UniProt O18468); test: Two-electrode voltage clamp recordings of Xenopus oocytes injected with pIVY12 mRNA; type: cell-based; settings: for gross effect of known agonist / antagonist on the channel: similar assays
T2 construct: in vitro transcribed pIVY12 mRNA injected into Xenopus oocytes, homomeric channel
T2 sequence (O18468 30-496): T1 sequence (O18468 30-496)
Method: (§1) Messenger RNA was produced from the cDNA template of pIVY12 described in Example I by in vitro transcription with the Ambion mMESSAGE mMACHINE IN VITRO TRANSCRIPTION KIT™ (Ambion, Inc.) The mRNA was injected into oocytes by the following procedure.
(§2) Frogs were anesthetized in a 2 gram/liter solution of 3-amino benzoic acid ethyl ester for thirty minutes, after which oocytes were surgically removed from the abdominal cavity. Follicles were digested by collagenase treatment under sterile conditions by standard methods. Oocytes were injected with 50 nl of mRNA by glass electrodes.
(§3) Following a 24 to 48 hour incubation, two-electrode voltage clamp recordings were made. Recordings were made using a Dagan TEV200 voltage clamp interfaced with a MacLab4 data acquisition system running the MacLab Chart data acquisition/analysis software. Oocytes were positioned under a dissecting scope under constant perfusion with ND-96 standard saline using a Razel syringe perfusion pump, model A99-FY at 93.9 cc/hr. Glass electrodes (A-M Systems, Inc., 1.5 mm×0.86 mm) were filled with 3M KCl and resistance ([…]) was measured to be between 0.7 and 1.5 mega ohms. Both electrodes were inserted into the oocyte at opposite sides, the resting potential was recorded and the voltage clamp turned on. Oocytes were held at a resting potential between -70 and -50 mV. Control responses of GABA were obtained by stopping the perfusion of saline and perfusing with a known concentration of GABA in ND-96 with 0.1% DMSO. The average of several GABA applications was taken as the maximal chloride current for that particular GABA dose. The effect of 10 micromolar GABA on the lepidopteran GABA gated chloride channel expressed in Xenopus oocytes is depicted in FIG. 4. […] In particular, the Heliothis virescens cyclodiene resistant chloride channel is about ten times less sensitive to block by fipronil than the Drosophila Rdl chloride channel.

[3] = target: T3, Heliothis GABA gated chloride channel (Heliothis virescens, UniProt O18468); test: Whole cell patch clamp recordings of permanently transformed Drosophila SH1 cell lines (pIVY17); type: cell-based; settings: SH1 cells, induced by 10 μM cadmium chloride for 48 hours, FIG. 7
T3 sequence (O18468 30-496): T1 sequence (O18468 30-496)
From the text: To verify that expression of cDNA encoding the GABA gated chloride channel subunit results in production of a functional GABA gated chloride channel, hole cell voltage clamp recordings were made at thirty hours post infection. […] The results presented in this example indicate that expression of DNA encoding a lepidopteran GABA gated chloride channel subunit in Sf9 cells results in a functional GABA gated chloride channel.
Drosophila cell line SH1 was transformed with plasmid pIVY17 using lipofectin obtained from GIBCO-BRL following the manufacturer's instructions. Selection of insect cell transformants was accomplished with hygromycin at a concentration of 200 μg/ml. The Heliothis GABA gated chloride channel expression was induced by 10 μM cadmium chloride added to the growth medium for 48 hours prior to electrophysiological readings. Whole cell voltage patch clamping recordings were performed on a number of cell lines as described in Example III.

[4] = tested on: Heliothis virescens cyclodiene resistant chloride channel; test: Two-electrode voltage clamp recordings of Xenopus oocytes injected with pIVY12 mRNA; type: cell-based; settings: agonized by GABA
Method: as §1, §2, §3

[5] = target: T4, Drosophila Rdl chloride channel (Drosophila melanogaster, UniProt P25123); settings: 10 micromoles of picrotoxinin; cited from earlier work
T4 sequence (P25123 45-606): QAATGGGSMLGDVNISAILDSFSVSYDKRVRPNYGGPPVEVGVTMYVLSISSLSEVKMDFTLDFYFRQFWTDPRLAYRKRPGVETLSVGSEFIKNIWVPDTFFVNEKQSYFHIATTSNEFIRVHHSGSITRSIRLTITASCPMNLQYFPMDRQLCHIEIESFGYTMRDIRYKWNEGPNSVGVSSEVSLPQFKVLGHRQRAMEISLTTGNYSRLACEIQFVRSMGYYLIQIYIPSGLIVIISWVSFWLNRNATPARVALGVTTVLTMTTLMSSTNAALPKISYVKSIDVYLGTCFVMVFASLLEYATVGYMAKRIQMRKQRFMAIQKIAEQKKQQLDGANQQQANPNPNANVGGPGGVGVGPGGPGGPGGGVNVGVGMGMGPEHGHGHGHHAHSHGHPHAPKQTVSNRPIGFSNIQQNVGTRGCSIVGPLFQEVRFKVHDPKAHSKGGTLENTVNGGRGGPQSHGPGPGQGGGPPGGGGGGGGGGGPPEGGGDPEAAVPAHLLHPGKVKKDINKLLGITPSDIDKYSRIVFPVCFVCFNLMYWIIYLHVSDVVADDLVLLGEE

For `NCCCC(=O)O` [GABA, gamma-amino butyric acid], the “functional effect on the GABA gated chloride channel (flux of chloride ion)” value [1] was “exhibits the gross functional effect on the GABA gated chloride channel”, the “functional effect on the GABA gated chloride channel” value ([2]; 10 micromolar GABA, FIG. 4) was “exhibits the predicted gross functional effect” and the “functional effect on the GABA gated chloride channel (flux of chloride ion)” value [3] was “exhibits the predicted gross functional effect”.
For `N#Cc1nn(-c2c(Cl)cc(C(F)(F)F)cc2Cl)c(N)c1[S+]([O-])C(F)(F)F` (stereo not drawn) [fipronil], the “reduction of sensitivity to block relative to Drosophila Rdl chloride channel” value [4] was “about ten”.
For `NCc1cc(=O)[nH]o1` [muscimol], the “gross effect of known agonist / antagonist on the channel” value [2] was “exhibited the predicted gross effects”.
In the case of `C=C(C)[C@@H]1[C@H]2OC(=O)[C@@H]1[C@]1(O)C[C@H]3O[C@]34C(=O)O[C@H]2[C@]14C` [picrotoxinin], the “block of the Heliothis channel” value ([2]; 10 micromoles of picrotoxinin) is reported as “fifty”, the “gross effect of known agonist / antagonist on the channel” value [2] is reported as “exhibited the predicted gross effects” and the “reduction of sensitivity to block relative to Drosophila Rdl chloride channel” value [4] is reported as “more than 100 times”. The “block of Drosophila Rdl” value [5] was “nearly complete block”.
